Data from patent US7888025B2, “Intestinal folate transporter method” (Albert Einstein College of Medicine of Yeshiva University, priority 2007, dated 2011).
Read-outs that look alike come from different tables or passages of the source. One block for each molecule: values may come before it.

Assays:
G21 (PCFT) [1] = biological target: T1, G21 (PCFT) (Homo sapiens, UniProt Q96NT5); assay: Inhibition of [3H]folic acid uptake into G21 cRNA-injected Xenopus oocytes; assay type: cell-based; conditions: 20 μM nonlabeled compound, pH 5.5, 30 min
T1 construct: expressed in transfected cells; host or cells: Xenopus laevis oocytes injected with capped G21 cRNA (pSPT64, SP6)
T1 sequence (Q96NT5 1-459): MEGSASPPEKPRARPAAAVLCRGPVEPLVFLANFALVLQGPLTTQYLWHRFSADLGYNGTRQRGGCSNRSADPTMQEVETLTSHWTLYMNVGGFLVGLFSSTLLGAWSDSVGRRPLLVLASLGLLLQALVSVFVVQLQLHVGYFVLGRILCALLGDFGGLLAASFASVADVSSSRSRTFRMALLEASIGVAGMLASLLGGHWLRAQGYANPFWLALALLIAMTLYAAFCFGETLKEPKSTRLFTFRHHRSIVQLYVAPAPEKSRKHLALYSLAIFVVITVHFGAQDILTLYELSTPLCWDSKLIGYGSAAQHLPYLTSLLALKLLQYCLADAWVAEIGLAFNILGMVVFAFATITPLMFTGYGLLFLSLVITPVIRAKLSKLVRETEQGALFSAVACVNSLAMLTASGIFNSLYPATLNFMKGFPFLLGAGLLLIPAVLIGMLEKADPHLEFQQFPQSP
Procedure: Uptake studies in Xenopus oocytes. […] Radiotracer uptake was determined 3 or 4 days later. […] Uptake was halted by the addition of ice-cold MBS (pH 7.5). Oocytes were washed 10 times thereafter, and solubilized with 10% SDS for measurement of radioactivity. To collapse the pH gradient across the oocyte membrane, seven to 10 oocytes were incubated in MBS (pH 5.5) containing 0, 10, 20, 40, 60 μM FCCP for 20 min, and uptake of transport substrates assessed at pH 5.5.

G21 (PCFT) [2] = biological target: T1, G21 (PCFT); assay: Two-electrode voltage-clamp electrophysiology in G21 cRNA-injected Xenopus oocytes; assay type: cell-based; conditions: for Km: read-out: electrophysiologically determined Km
Procedure: Electrophysiological analyses in Xenopus oocytes. Defolliculated oocytes were injected with 50 nl of water (control) or G21 cRNA (50 ng), and kept at 17° C. in horse serum medium (in mM, 82.5 NaCl, 2.5 KCl, 1 MgCl2, 2.3 CaCl2, 5 HEPES, 5% horse serum, pH 7.5). Electrophysiological recordings were conducted 3-7 days after cRNA injection in buffer (in mM, 90 NaCl, 1 KCl, 1 MgCl2, 1.8 CaCl2, 5 TRIS, 5 MES) as described previously (Jansen and Akabas, 2006). Oocyte holding potential was −80 mV for Km determination. For current-voltage (I-V) relationships, from a −60 mV holding potential step changes in membrane potential were applied for 2 s in 10 mV increments between −100 and 30 mV in the absence and presence of substrate.

G21 (PCFT) [3] = biological target: T1, G21 (PCFT); assay: Uptake of tritiated folates in G21 cRNA-injected Xenopus oocytes; assay type: cell-based; conditions: for G21-mediated transport activity: pH 7.5, 2 μM tritiated substrate, 30 min
Procedure: Uptake studies in Xenopus oocytes. Defolliculated Xenopus laevis oocytes were prepared as described (Jansen and Akabas, 2006) and injected with 50 nl of water or G21 cRNA (30 ng). Radiotracer uptake was determined 3 or 4 days later. Seven to 10 oocytes were incubated in 500 μl of Modified Barth's Solution (MBS, in mM, 88 NaCl, 2.4 NaHCO3, 2.5 Na pyruvate, 1 KCl, 0.82 MgSO4, 0.41 CaCl2, 0.3 Ca(NO3)2, 15 MES or HEPES) and uptake of tritiated folate substrates assessed at room temperature. Uptake was halted by the addition of ice-cold MBS (pH 7.5). Oocytes were washed 10 times thereafter, and solubilized with 10% SDS for measurement of radioactivity. To collapse the pH gradient across the oocyte membrane, seven to 10 oocytes were incubated in MBS (pH 5.5) containing 0, 10, 20, 40, 60 μM FCCP for 20 min, and uptake of transport substrates assessed at pH 5.5.

PCFT = assay: [3H](6S)5-methylTHF uptake in HeLa cells transiently transfected with mutated PCFT cDNA; assay type: cell-based, human; conditions: pH 5.5, 37° C., 2 min; for residual transport activity as compared to the wild-type transporter: 0.5 μM [3H](6S)5-methylTHF, mock background subtracted
Text: Analysis of G21 in a family with hereditary folate malabsorption. Members of a family with hereditary folate malabsorption were studied according to a protocol and Informed Consent in the subjects' native language approved by the Albert Einstein College of Medicine IRB (CCI#2006-279). Whole blood was used for isolation of genomic DNA by a Genomic DNA Purification Kit (Gentra Systems, Minneapolis, Minn.) and to generate EBV-transformed human B-lymphoblastoid cell lines in the Einstein Human Genetics Cell Culture Core. Each G21 exon with flanking regions was amplified using Taq DNA polymerase, Q-solution (Qiagen, Valencia, Calif.) and primers listed in Table 4. G21 or RFC cDNA were amplified from lymphoblastoid cells by RT-PCR. PCR products were gel-purified and sequenced in an ABI 3730 DNA Analyzer (Applied Biosystems). The mutated region was verified by sequencing both DNA strands. An expression vector of the mutated G21 in which exon 3 was skipped (GenBank accession number: BC010691) was purchased from Open Biosystems and, along with pcDNA3.1(+)G21 (wild type), was used for an assay of transport function. Western blot analysis on whole cell lysate and cellular localization was performed as described above.
Site-directed mutagenesis. PCFT cDNA was cloned in pCDNA 3.1 (+) and mutations in the coding region were introduced by site-directed mutagenesis using PfuTurbo® DNA polymerase (Stratagene, La Jolla, Calif.) as described previously (Zhao et al., 2000). The entire PCFT coding region in the plasmid was sequenced to verify the presence of the mutation.
Transient transfections and assessment of 5-methylTHF transport. Plasmid concentrations were determined by UV absorption and verified by agarose gel analysis. HeLa cells were seeded and transiently transfected in 20 ml glass scintillation vials (Research Products International Corp., Mt. Prospect, Ill.) and after two days, [^3H]5-methylTHF uptake was assessed (Qiu et al., 2006). EBV-transformed B-lymphoblastoid cells, generated from blood (P6 and P7), were washed twice with, and resuspended in, unbuffered saline (160 mM NaCl, 5 mM KCl, 2 mM MgCl2, 5 mM glucose). Uptake was initiated by injection of the cell suspension into MES-buffered saline (pH 5.5) containing 0.5 μM [^3H]5-methylTHF. Surface binding was assessed by measuring [^3H]5-methylTHF associated with cells at 0° C. and the bound component was subtracted from total uptake.

[4] = changing the pH from 5.5 to 6.5
[5] = increasing the pH from 6.5 to 7.5
[6] = 10 μM FCCP, 20 min pre-incubation, extracellular pH 5.5, 2 μM substrate

shift of reversal potential (G21 (PCFT) [2]; [4]): −8 mV
shift of reversal potential (G21 (PCFT) [2]; [5]): −36 mV
lowest concentration at which current was detected (G21 (PCFT) [2]; pH 5.5, Vh −80 mV): 0.1 µM
current amplitude larger than (6S)5-MTHF-induced current (G21 (PCFT) [2]; saturating concentrations, same oocyte, pH 5.5): 86±11%
Molecule: CN(Cc1cnc2nc(N)nc(N)c2n1)c1ccc(C(=O)N[C@@H](CCC(=O)O)C(=O)O)cc1 [MTX, methotrexate]
inhibitory effect on uptake of 2 μM [3H]folic acid (G21 (PCFT) [1]): less effective competitor than folic acid

inhibitory effect on uptake of 2 μM [3H]folic acid (G21 (PCFT) [1]): did not inhibit
Molecule: C[C@H](CCC(=O)O)[C@H]1CC[C@H]2[C@@H]3[C@H](O)C[C@@H]4C[C@H](O)CC[C@]4(C)[C@H]3C[C@H](O)[C@]12C [cholic acid]

Molecule: C[C@H](CCC(=O)NCCS(=O)(=O)O)[C@H]1CC[C@H]2[C@@H]3[C@H](O)C[C@@H]4C[C@H](O)CC[C@]4(C)[C@H]3C[C@H](O)[C@]12C [taurocholic acid]
inhibitory effect on uptake of 2 μM [3H]folic acid (G21 (PCFT) [1]): did not inhibit

Molecule: CN1c2c(nc(N)[nH]c2=O)NC[C@@H]1CNc1ccc(C(=O)N[C@@H](CCC(=O)O)C(=O)O)cc1 [(6S)5-MTHF, (6S)5-methyltetrahydrofolate]
inhibitory effect on uptake of 2 μM [3H]folic acid (G21 (PCFT) [1]): comparable to those of (6S)5-FTHF
G21-mediated transport activity (G21 (PCFT) [3]): residual activity
shift of reversal potential (G21 (PCFT) [2]; [4]): −6 mV
shift of reversal potential (G21 (PCFT) [2]; [5]): −30 mV
Km (G21 (PCFT) [2]; pH 5.5, holding potential −80 mV): 530 ± 40 nM
Km (G21 (PCFT) [2]; pH 6.5, holding potential −80 mV): 780 ± 140 nM

inhibitory effect on uptake of 2 μM [3H]folic acid (G21 (PCFT) [1]): most potent competitor
Molecule: Nc1nc2[nH]cc(CCc3ccc(C(=O)N[C@@H](CCC(=O)O)C(=O)O)cc3)c2c(=O)[nH]1 [pemetrexed]

inhibitory effect on uptake of 2 μM [3H]folic acid (G21 (PCFT) [1]): more potent than the unnatural 6R isomer
G21-mediated transport activity (G21 (PCFT) [3]): residual activity
Molecule: Nc1nc2c(c(=O)[nH]1)N(C=O)[C@@H](CNc1ccc(C(=O)N[C@@H](CCC(=O)O)C(=O)O)cc1)CN2 [(6S)5-FTHF, (6S)5-formyltetrahydrofolate]

inhibitory effect on uptake of 2 μM [3H]folic acid (G21 (PCFT) [1]): did not inhibit
Molecule: C[C@]12CC[C@@H]3c4ccc(OS(=O)(=O)O)cc4CC[C@H]3[C@@H]1CCC2=O [estrone-3-sulfate]

inhibitory effect on uptake of 2 μM [3H]folic acid (G21 (PCFT) [1]): did not inhibit
Molecule: Nc1ccc(C(=O)NCC(=O)O)cc1 [para-aminohippuric acid]

Molecule: N#CC(C#N)=NNc1ccc(OC(F)(F)F)cc1 [FCCP, carbonyl cyanide 4-(trifluoromethoxy) phenylhydrazone]
effect on [3H]MTX uptake (G21 (PCFT) [3]; [6]): markedly decreased
effect on [3H]folic acid uptake (G21 (PCFT) [3]; [6]): markedly decreased

Molecule: O=C1OC(c2ccc(O)c(S(=O)(=O)O)c2)(c2ccc(O)c(S(=O)(=O)O)c2)c2c(Br)c(Br)c(Br)c(Br)c21 [Bromosulphopthalein]
inhibitory effect on uptake of 2 μM [3H]folic acid (G21 (PCFT) [1]): did not inhibit

B1: G147R: human PCFT mutant protein (protein, UniProt Q96NT5 1-459, looked up, variant G147R)
Proton-coupled folate …: MEGSASPPEKPRARPAAAVLCRGPVEPLVFLANFALVLQGPLTTQYLWHRFSADLGYNGTRQRGGCSNRSADPTMQEVETLTSHWTLYMNVGGFLVGLFSSTLLGAWSDSVGRRPLLVLASLGLLLQALVSVFVVQLQLHVGYFVLRRILCALLGDFGGLLAASFASVADVSSSRSRTFRMALLEASIGVAGMLASLLGGHWLRAQGYANPFWLALALLIAMTLYAAFCFGETLKEPKSTRLFTFRHHRSIVQLYVAPAPEKSRKHLALYSLAIFVVITVHFGAQDILTLYELSTPLCWDSKLIGYGSAAQHLPYLTSLLALKLLQYCLADAWVAEIGLAFNILGMVVFAFATITPLMFTGYGLLFLSLVITPVIRAKLSKLVRETEQGALFSAVACVNSLAMLTASGIFNSLYPATLNFMKGFPFLLGAGLLLIPAVLIGMLEKADPHLEFQQFPQSP
residual transport activity as compared to the wild-type transporter (PCFT): 7.0%

B2: P425R: human PCFT mutant protein (protein, UniProt Q96NT5 1-459, looked up, variant P425R)
Proton-coupled folate …: MEGSASPPEKPRARPAAAVLCRGPVEPLVFLANFALVLQGPLTTQYLWHRFSADLGYNGTRQRGGCSNRSADPTMQEVETLTSHWTLYMNVGGFLVGLFSSTLLGAWSDSVGRRPLLVLASLGLLLQALVSVFVVQLQLHVGYFVLGRILCALLGDFGGLLAASFASVADVSSSRSRTFRMALLEASIGVAGMLASLLGGHWLRAQGYANPFWLALALLIAMTLYAAFCFGETLKEPKSTRLFTFRHHRSIVQLYVAPAPEKSRKHLALYSLAIFVVITVHFGAQDILTLYELSTPLCWDSKLIGYGSAAQHLPYLTSLLALKLLQYCLADAWVAEIGLAFNILGMVVFAFATITPLMFTGYGLLFLSLVITPVIRAKLSKLVRETEQGALFSAVACVNSLAMLTASGIFNSLYPATLNFMKGFRFLLGAGLLLIPAVLIGMLEKADPHLEFQQFPQSP
residual transport activity as compared to the wild-type transporter (PCFT): 3.4%

B3: R113S: human PCFT mutant protein (protein, UniProt Q96NT5 1-459, looked up, variant R113S)
Proton-coupled folate …: MEGSASPPEKPRARPAAAVLCRGPVEPLVFLANFALVLQGPLTTQYLWHRFSADLGYNGTRQRGGCSNRSADPTMQEVETLTSHWTLYMNVGGFLVGLFSSTLLGAWSDSVGSRPLLVLASLGLLLQALVSVFVVQLQLHVGYFVLGRILCALLGDFGGLLAASFASVADVSSSRSRTFRMALLEASIGVAGMLASLLGGHWLRAQGYANPFWLALALLIAMTLYAAFCFGETLKEPKSTRLFTFRHHRSIVQLYVAPAPEKSRKHLALYSLAIFVVITVHFGAQDILTLYELSTPLCWDSKLIGYGSAAQHLPYLTSLLALKLLQYCLADAWVAEIGLAFNILGMVVFAFATITPLMFTGYGLLFLSLVITPVIRAKLSKLVRETEQGALFSAVACVNSLAMLTASGIFNSLYPATLNFMKGFPFLLGAGLLLIPAVLIGMLEKADPHLEFQQFPQSP
[3H](6S)5-methylTHF uptake (transport function) (PCFT; 0.5 μM, transiently transfected HeLa cells): essentially no uptake
